According to patent US12156859B2, “Methods of and compositions for treating obesity, obesity-related diseases or cancers using a N6-methyllysine/l-lysine mixture” (Tainnovation Inc, priority 2021, dated 2024):
Entries after “also recorded” stand apart in the source; their conditions may differ.

What was measured:
DUSP6 / cold microbiota = experiment: 16S rRNA microbiota analysis of BCI-CR versus Vehicle-CR mice (cold-room temperature transition); format: in vivo; settings: during the cold-RT transition, BCI-CR vs Vehicle-CR, 16S rRNA sequencing
From the text: FIG. 1B illustrates the cold induced gut bacteria that is regulated by DUSP6 inhibition by injecting DUSP6 inhibitor, (E/Z)-BCI hydrochloride, into the mice underwent cold-room temperature (CR) transition.
To search the potential Nε-Methyl-L-lysine producers in cold microbiota, we performed the microbiota analysis on 16S rRNA sequencing data of BCI-CR and Vehicle-CR microbiota.

[1] = tested on: CDAHFD-induced NASH and liver fibrosis; experiment: NASH and liver fibrosis test (CDAHFD-fed mice); format: in vivo, male C57BL/6J mice
Protocol: (§1) Tissues were fixed in 4% neutral-buffered formalin (Sigma), paraffin-embedded, sectioned, and stained with hematoxylin and eosin (H&E) or subjected to immunohistochemistry analysis. For adipose tissue, the 5 μm FFPE sections of pWAT and iWAT were deparaffinated and stained with H&E. The mean adipocyte area and adipocyte size distribution were determined by using Adiposoft software. For quantifying lipid droplets in liver tissues, the 5 μm FFPE liver sections were deparaffinated and stained with H&E. The mean lipid droplets area was determined by using Image J software.
Groups of 6-week-old male C57BL/6J mice were fed in choline-deficient, L-amino acid-defined, high-fat diet (CDAHFD; #A06071302) purchased from Research Diets (New Brunswick, NJ, USA) or chow diet for 4 weeks. After two weeks of CDAHFD treatment, mice were orally administrated L-lysine (150 mM), Nε-Methyl-L-lysine (150 mM) (100 ul/mouse/Day) or vehicle (water; 100 ul/mouse/Day) for 14 days with continuing CDAHFD treatment. Bodyweight was measured weekly. After sacrifice, the serum of mice was collected and stored at −80° ° C. The serum levels of aspartate aminotransferase (AST) and alanine aminotransferase (ALT) were measured with biochemistry slides for a chemistry analyzer (FUJI DRI-CHEM 4000i, Fujifilm Corporation, Japan). For hepatic fibrosis staining, the 5 μm FFPE liver sections were deparaffinated and stained with a Trichrome staining kit according to the manufacturer's instructions.
8-weeks old male C57BL/6 mice are fed with a choline-deficient, L-amino acid-define, high-fat diet (CDAHFD) (Research Diet, Inc. […]) for 4 weeks to induce NASH and liver fibrosis. During the third and fourth week of CDAHFD treatment, it is orally administered Nε-Methyl-L-lysine (100 μg Nε-Methyl-L-lysine/g body weight/per day) into mice for fourteen days. […] Data are presented as mean±SEM. Kruskal-Wallis test is used in FIG. 4 (a and b) Mann-Whitney t-tests are used in FIG. 4 (c and d) to indicate significant differences between groups. *P<0.05. *P<0.005. *P<0.0005. *P<0.00005.

[2] = tested on: perigonadal white adipose tissue (pWAT) and inguinal white adipose tissue (iWAT); experiment: Adipose tissues reducing experiment: 14-day oral administration to chow diet-fed mice, body weight and pWAT/iWAT mass; format: in vivo, male C57BL/6J mice; settings: chow diet-fed male mice, fourteen days
Protocol: To test the browning-activating and WAT-reducing abilities of Nε-Methyl-L-lysine, 8-week-old male C57BL/6J mice were orally administrated of L-lysine (150 mM), Nε-Methyl-L-lysine (150 mM) (100 ul/mouse/Day) or vehicle (water; 100 ul/mouse/Day) for 14 days.
(§2) 14 days after treatment, the L-lysine (150 mM), Nε-Methyl-L-lysine (150 mM) (100 ul/mouse/Day) or vehicle (water; 100 ul/mouse/Day) treated mice were sacrificed and the perigonadal white adipose tissue (pWAT) and inguinal white adipose tissue (iWAT) were collected and weighted for measuring the reducing effects of L-lysine, Nε-Methyl-L-lysine and vehicle. To test the browning-activating abilities of L-lysine, Nε-Methyl-L-lysine and vehicle control in pWAT and iWAT of treated mice, total RNA of WAT was extracted by using RNeasy Lipid Tissue kits. The concentration and quality of RNA were measured by NanoDrop spectrophotometer. For qRT-PCR analysis of browning marker gene Ucp1 and beta-oxidation gene Cpt1b, complementary DNA was obtained by using M-MLV Reverse Transcriptase with oligo-dT primers. qRT-PCR was performed with SYBR-green master on a MyGo Pro PCR system.
FIG. 6 illustrates a method of using Nε-Methyl-L-lysine to reduce the total mass of subcutaneous and perigonadal white adipose tissues without reducing total body weight. It is orally administered Nε-Methyl-L-lysine (100 μg Nε-Methyl-L-lysine/g body weight/per day, body weights before treatment, body weights 7 days after treatment, body weights 14 days after treatment) into eight weeks old male C57/BL6 mice for fourteen days. […] Data are presented as mean±SEM and significance is calculated by one-way ANOVA followed by Tukey's multiple comparison test. *P<0.05. **P<0.01.

gut microbiota = experiment: Gut microbiota control experiment (14-day oral administration); format: in vivo, male C57/BL6 mice
Protocol: 14 days after treatment, the fecal pellets of L-lysine (150 mM), Nε-Methyl-L-lysine (150 mM) (100 ul/mouse/Day) or vehicle (water; 100 ul/mouse/Day) treated mice were collected for DNA extraction. PCR amplification was performed on extracted DNA for 16s rDNA amplicons by using the primers targeting the V3-V4 region (primer set: 341F-805R). 16s rRNA amplicons were sequenced on an Illumina Miseq platform and generated 300 bp paired-end reads. Raw data were obtained with barcodes sequences cleaned up. The sequencing data was analyzed using the QIIME 2 platform (version: 2020.8).
(§3) It is orally administered Nε-Methyl-L-lysine (100 μg Nε-Methyl-L-lysine/g body weight/per day) into eight weeks old male C57/BL6 mice for fourteen days. Fourteen days after treatment, perigonadal adipose tissues of vehicle (H2O) treated mice and Nε-Methyl-L-lysine treated mice were collected for qPCR analyses. […] Data are presented as mean±SEM. Mann-Whitney t-tests are used to indicate significant differences between groups. *P<0.05.

[3] = tested on: differentiated 3T3-L1 adipocytes; experiment: Cell differentiation experiment: Oil Red-O lipid staining and Ucp1 qPCR; format: cell-based; settings: 150 μM
Protocol: The differentiation of 3T3-L1 cells was performed by using 3T3-L1 DIFFERENTIATION KIT (DIF001, Merck). After differentiation, cells were maintained in a complete medium containing […] Nε-Methyl-L-lysine and vehicle control for 7 days before the harvest. After treatments, cells were subjected to RNA extraction and qPCR analysis of Ucp1 and Cpt1b mRNA expression. For quantifying the lipid accumulation in cells, cells were fixed with in 4% neutral-buffered formalin and stained with Oil Red-O reagent.
FIG. 5 illustrates a method of using Nε-Methyl-L-lysine to inhibit lipid storage and promote adipose browning in differentiated 3T3-L1 adipocytes in accordance with some embodiments. 3T3-L1 cells (SP-L1-F) are purchased from a commercial available source. It is maintained and differentiated 3T3-L1 preadipocytes. After differentiation, differentiated 3T3-L1 adipocytes are treated by post-differentiation medium containing vehicle (H2O) or Nε-Methyl-L-lysine (150 μM). […] Data are collected from three independent experiments (FIGS. 5a and 5b) and presented as mean±SEM. Mann-Whitney t-tests are used to indicate significant differences between groups. *P<0.05. **P<0.01. ****P<0.0001.

[4] = tested on: adipocytes of pWAT and iWAT; experiment: Histological examination of pWAT and iWAT (H&E, Adiposoft adipocyte area and size distribution); format: in vivo, male C57BL/6J mice; settings: vs vehicle
Protocol: as §1

Ucp1 and Cpt1b = experiment: qRT-PCR of browning marker gene Ucp1 and beta-oxidation gene Cpt1b in white adipose tissue of treated mice; format: in vivo, male C57BL/6J mice; settings: perigonadal adipose tissue, 14 days after oral treatment, qPCR, vs vehicle
Protocol: as §2
as §3, with “Beiging and β-oxidation are two major fat-burning mechanism of white adipose tissues controlled by the expression of Ucp-1 and CPT-1 gene respectively. […] It” for “It”, “14” for “Fourteen”, “are” for “were”

[5] = CDAHFD 4 weeks, oral treatment during third and fourth week
[6] = 100 μg/g body weight/per day oral, fourteen days, vs vehicle

Cl.O=C1/C(=C/c2ccccc2)C(NC2CCCCC2)c2ccccc21 (mixture of isomers) [(E/Z)-BCI hydrochloride]
abundance of Lachospiraceae bacterium, Marvinbryantia uncultured bacterium, Peptococcaceae uncultured bacterium, Bifidobacterium pseudolongum and Gordonnibacter uncultured bacterium (DUSP6 / cold microbiota): significantly regulates the abundance

NCCCC[C@H](N)C(=O)O [L-lysine]
serum ALT level, CDAHFD compared with chow-diet fed mice [1, 5]: significantly increased | serum AST level, CDAHFD compared with chow-diet fed mice [1, 5]: significantly increased | total mass of iWAT (subcutaneous white adipose tissues) [2]: did not show significant effects | total mass of pWAT (perigonadal white adipose tissues) [2]: did not show significant effects

CNCCCC[C@H](N)C(=O)O [Nε-Methyl-L-lysine]
number of bacteria classified in the Actinobacteria phylum in gut (gut microbiota; [6]): capable of increasing the number | number of bacteria classified in the Bacilli class in gut (gut microbiota; [6]): capable of increasing the number | number of bacteria classified in the Bacteroidia phylum in gut (gut microbiota; [6]): capable of increasing the number | number of bacteria classified in the Bifidobacterium genus in gut (gut microbiota; [6]): capable of increasing the number | number of bacteria classified in the Coriobacteriia class in gut (gut microbiota; [6]): capable of increasing the number | number of bacteria classified in the Lactobacillus genus in gut (gut microbiota; [6]): capable of increasing the number | number of bacteria classified in the Saccharimonadia class in gut (gut microbiota; [6]): capable of increasing the number | number of bacteria classified in the Verrucomicrobiota phylum in gut (gut microbiota; [6]): capable of increasing the number | total bacterial load (gut microbiota; [6]): capable of increasing the total bacterial load | number or relative percentage of Akkernmansia muciniphilla in gut (gut microbiota; FIG. 8j): increase the number or relative percentage | lipid storage (oil-red O staining) ([3]; vs vehicle (H2O)): significantly reduce lipid storage | browning marker Ucp-1 expression ([3]; vs vehicle-treated cells): significantly induce | serum ALT level, CDAHFD compared with chow-diet fed mice [1, 5]: significantly increased | reducing AST/ALT ratio, compared with lysine ([1]; mice fed with a CDAHFD): better effect than lysine | reducing serum AST level, compared with lysine ([1]; mice fed with a CDAHFD): better effect than lysine | liver lipid droplets ([1]; mice fed with a CDAHFD, oral 14 days): promising effect on reducing | liver fibrosis ([1]; mice fed with a CDAHFD, oral 14 days, trichrome stain): promising effect on reducing | mean adipocyte area and distribution of adipocyte size of pWAT and iWAT ([4]; Adiposoft software): significantly reduced | adipocyte size in iWAT (histological examination) ([4]; H&E sections): significantly reduced adipocyte size | adipocyte size in pWAT (histological examination) ([4]; H&E sections): significantly reduced adipocyte size | expression of Cpt1b (β-oxidation marker gene) in pWAT (Ucp1 and Cpt1b): significantly induced the expression | expression of Ucp-1 (browning marker gene) in pWAT (Ucp1 and Cpt1b): significantly induced the expression | expression of Cpt1b (β-oxidation marker gene) in pWAT (Ucp1 and Cpt1b; listed as Nε-Methyl−1-lysine): enhanced the expression | expression of Ucp-1 (browning marker gene) in pWAT (Ucp1 and Cpt1b; listed as Nε-Methyl−1-lysine): enhanced the expression | sensitivity of visceral pWAT versus subcutaneous iWAT to the substance [2]: higher sensitivity | total mass of iWAT (subcutaneous white adipose tissues) [2]: dramatically reduced | total mass of pWAT (perigonadal white adipose tissues) [2]: dramatically reduced | body weight ([2]; 150 mM 100 ul/mouse/Day (100 μg/g body weight/per day), vs vehicle or L-lysine): did not significantly change the body weight; also recorded: did not change the mice body weights
